Measurements taken from article PMC12648443, “Modifications of NU-9, a potent protein aggregation inhibitor. Properties and activity in a cellular model of amyotrophic lateral sclerosis” (Bioorganic chemistry, 2025).

How the values were obtained:
BCRP = target: T1, BCRP (Homo sapiens, UniProt Q9UNQ0); test: MDCKII-BCRP bidirectional permeability / efflux assay; assay type: in vitro ADME; conditions: for substrate for the BCRP transporter: based on efflux ratio (> 2.0 = substrate); for Papp A→B at 120 min / Papp B→A at 120 min / efflux ratio at 120 min: dog, MDCKII-BCRP, absence of Ko143
T1 construct: host or cells: MDCKII-BCRP (canine MDR1 knockout, transfected with BCRP)
T1 sequence (Q9UNQ0 1-655): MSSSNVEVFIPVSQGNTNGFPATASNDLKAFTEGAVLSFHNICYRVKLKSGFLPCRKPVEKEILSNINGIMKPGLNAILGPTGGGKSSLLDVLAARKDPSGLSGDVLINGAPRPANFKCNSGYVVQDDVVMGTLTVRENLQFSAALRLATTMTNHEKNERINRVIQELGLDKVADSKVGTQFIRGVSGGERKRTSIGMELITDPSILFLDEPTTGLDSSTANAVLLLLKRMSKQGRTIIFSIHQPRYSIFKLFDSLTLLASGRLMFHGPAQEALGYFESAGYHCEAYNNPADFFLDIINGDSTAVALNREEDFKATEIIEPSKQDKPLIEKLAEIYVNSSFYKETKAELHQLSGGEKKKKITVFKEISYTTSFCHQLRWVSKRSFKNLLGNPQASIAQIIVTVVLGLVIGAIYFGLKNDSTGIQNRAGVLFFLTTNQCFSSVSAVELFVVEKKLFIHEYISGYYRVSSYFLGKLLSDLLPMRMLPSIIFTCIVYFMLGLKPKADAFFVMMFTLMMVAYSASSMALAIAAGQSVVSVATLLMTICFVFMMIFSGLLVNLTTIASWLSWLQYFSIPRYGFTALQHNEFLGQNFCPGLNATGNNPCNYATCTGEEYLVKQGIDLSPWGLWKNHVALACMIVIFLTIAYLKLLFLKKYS
Experimental: For each experiment, the apparent permeability (Papp) for each direction and the efflux ratio (ER) were determined by the equations: Papp(cm/s)=(dQ/dt)/A×Co
Where P(B→A) is the apparent permeability of the compounds from the basal to the apical direction and P(A→B) is the apparent permeability from the apical to basal direction. […] The results are presented as an average of two independent experiments.

[1] = Microsomal metabolic stability, mouse; assay type: in vitro ADME; conditions: liver microsomes; for microsomal CLint at 1.1 μM: pH 7.4, 0.5 mg/mL; for half-life at 1.1 μM: pH 7.4, read-out: t1/2 (mouse)
Experimental: The assay was performed at Jubilant Biosys. Vials containing human or mouse microsomes were collected from the -80 °C freezer and thawed on ice. Then 27.5 μL of the initial microsome solutions (20 mg/mL) were diluted in 971.5 μL of a 67 mM potassium phosphate buffer solution (pH 7.4). The testing compounds were diluted in the buffered microsomal solution to obtain a final concentration of 1.1 μM. Then four different aliquots, each containing 180 μL of the assay solution, representing the samples at T = 0, T = 5, T = 15, and T = 30 min. The samples were pre-incubated at 37 °C for 5 min with gentle shaking, and then 20 μL of a NADPH solution (10 mM) was added to the different solutions of the test compounds. […] An aliquot of the supernatant (200 μL) was collected from each reaction sample and analyzed by LC-MS/MS. The Ln values of the peak area of the compounds to the internal standard over time (min.) were graphed using Excel, and the elimination rates of the compounds (k) were determined from the slopes obtained from the graphs. The k values were used to calculate the compounds half-life using the equation: t1/2=Ln2/k The intrinsic clearance (CLint) of each compound in the presence of mouse and human microsomes was calculated using the equation: […] Verapamil and Ketoconazole were used as controls to evaluate the assay performance. The results are presented as an average of two technical replicates.

[2] = In vitro cytotoxicity, CellTiter-Glo, HEK293; assay type: cell-based; conditions: human, HEK293 cells; for viability at 24 h, 30 μM / viability at 48 h, 30 μM: relative to untreated cells, read-out: Percentage of viable cells observed at 30 μM treatment, HEK293; for EC50 at 24 h / EC50 at 48 h: cytotoxicity
Experimental: The HepG2 and HEK293 cells were cultured in DMEM media supplemented with 10 % FBS (heat-inactivated), 1 % Pen-strep, and L-glutamine and incubated at 37 °C in humidified air with 5 % CO2 until 85–90 % confluency. The PC12 Tet-Off-SOD1^G85R YFP cells were maintained as described in 4.2. On the day before the experiments, the cells were transferred to white bottom 96 well plates (Greiner cat. 655,083) at a concentration of 50,000 cells/100 μL of media in each well and incubated overnight at 37 °C. Stock solutions of the compounds (30 mM) in DMSO were prepared and then diluted in media to obtain the six final working solutions starting at 30 μM, and serial dilutions were obtained with the lowest concentration at 0.25 μM. The media were removed and fresh media containing the compounds or the vehicle DMSO (0.1 % v/v) were transferred to the plates containing HepG2 and HEK293 cells and the plates were incubated for 24 or 48 h at 37 °C. The PC12 Tet-Off-SOD1^G85R YFP cells compound treatment was performed as described in section 4.2 and using a 9-point 2-fold serial dilution of the compounds starting at 15 μM and the lowest concentration at 0.05 μM. After incubation, the plates were cooled to room temperature and 25 μL of CellTiter-Glo® solution was added to each well. The plates were loaded into a BioTek Synergy H1 MD plate reader and shaken for 2 min, stabilized for 10 min without shaking, and then the luminescence values were read for each well (luminescence integration step 1 ms). Wells containing media with the vehicle DMSO with or without cells were used as controls to represent, respectively, the maximum viability and the lowest viability (background signal) for the cytotoxicity studies with HepG2 and HEK293 cell lines. The viability values for the assay performed with the PC12 Tet-Off-SOD1^G85R YFP cells were normalised for the vehicle (0.1 % DMSO) and (−)-MG-132 alone treatments, which represented respectively the […] viability for the assay.
The results are presented as an average of three independent experiments, each performed in triplicate, for the cytotoxicity experiments performed with HepG2 and HEK293 cells. The results for the protective screening with the PC12 Tet-Off-SOD1^G85R YFP cells are presented as an average of four replicates.

substrate for the BCRP transporter (BCRP)	Papp A→B at 120 min (BCRP)	Papp B→A at 120 min (BCRP)	efflux ratio at 120 min (BCRP)	microsomal CLint at 1.1 μM [1]	half-life at 1.1 μM [1]	SMILES	viability at 24 h, 30 μM [2]	viability at 48 h, 30 μM [2]	EC50 at 24 h [2]	EC50 at 48 h [2]
substrates	3.62 ± 0.22 ×10⁻⁶ cm/s	19.2 ± 0.88 ×10⁻⁶ cm/s	5.32	35.7 ± 4.7 µL/min/mg	40.7 ± 3.8 min	CC(C)(Oc1cc(C(F)(F)F)cc(C(F)(F)F)c1)C1CC(=O)CC(=O)C1 [Compound 20, 5-(2-(3,5-bis(trifluoromethyl)phenoxy)propan-2-yl)cyclohexane-1,3-dione]	90%	91.6%	> 30 µM	> 30 µM
substrates	0.66 ± 0.18 ×10⁻⁶ cm/s	31.5 ± 2.73 ×10⁻⁶ cm/s	47.4	67.3 ± 0.9 µL/min/mg	20.7 ± 0.3 min	O=C1CC(=O)CC(/C=C/c2cc(C(F)(F)F)cc(C(F)(F)F)c2)C1 [Compound 6, (E)-5-(3,5-Bis(trifluoromethyl)styryl)cyclohexane-1,3-dione]	82.6%	89.6%	> 30 µM	> 30 µM
